In PubChem BioAssay AID1626 (SRMLSC, 2009):

Test system: M. tuberculosis H37Rv growth inhibition
Test: M. tuberculosis H37Rv growth inhibitors, H37Rv strain (AID 1626)
Conditions: for IC90: measured here: IC90 against H37Rv; for CC50: measured here: Vero cell cytotoxicity

O=C(Nc1nc2c(F)cc(F)cc2s1)c1ccccn1
IC50: 0.34 µM | IC90: 1.49 µM | CC50: 3.89 µM

Cc1oc2c(c1C(=O)Nc1cccc3ccccc13)CCCC2
IC50: 3.58 µM | IC90: 7.71 µM

CCCCOC(=O)c1ccc(NC(=O)C(=O)NCCN(C)C)cc1
IC50: 14.9 µM | IC90: > 100 µM

CSc1ccc2c(c1)C(N1CCN(C)CC1)Cc1ccccc1S2 (configuration not stated)
IC50: 8.54 µM | IC90: 10.9 µM | CC50: 20.9 µM

Cc1c([N+](=O)[O-])cc(C(=O)NCc2ccc(F)cc2)cc1[N+](=O)[O-]
IC50: < 0.195 µM | IC90: > 100 µM

CCCCCCc1cc2cc(C(=O)NC)c(=N)oc2cc1O
IC50: 4.69 µM | IC90: 7.11 µM

N=C(N)SCc1cn(-c2ccccc2)nc1-c1ccc(Br)cc1
IC50: 6.8 µM | IC90: 9.39 µM | CC50: 14.6 µM

CCOC(=O)c1ccc(NC(=O)c2n[nH]c(=O)c3ccccc23)cc1
IC90: > 100 µM

Cc1cc(C)cc(NC(=O)c2ccc([N+](=O)[O-])o2)c1
IC50: 9.59 µM | IC90: 22.6 µM | CC50: 9.81 µM

O=C1C=CC(O)(c2cc(=O)c3c(O)cc(O)cc3o2)C=C1
IC50: 3.87 µM | IC90: 6.68 µM | CC50: 6.81 µM

O=C(/C=C/c1ccc(Cl)cc1Cl)c1cccnc1
IC50: 2.97 µM | IC90: 3.35 µM | CC50: 30.6 µM

COc1cc(/C=C/c2ccc3c(Br)cc(Br)c(O)c3n2)ccc1O
IC50: < 0.195 µM | IC90: 0.345 µM | CC50: 14.5 µM

Clc1ccc(-c2ccc(C=Nc3ccc(N4CCOCC4)cc3)o2)c(Cl)c1
IC90: > 100 µM

CN(C)CCCn1c(SCC(=O)Nc2nc(-c3cccc(Br)c3)cs2)nc2ccccc2c1=O
IC50: 5.61 µM | IC90: 5.96 µM | CC50: 8.6 µM

COc1ccc(CNCc2cn(-c3cccc(F)c3)nc2-c2ccc(C)o2)cc1
IC50: 6.12 µM | IC90: 10.5 µM | CC50: > 40 µM

O=C1CC(=C(c2ccccc2)c2ccccc2)C(=O)N1CCCCN1CCN(c2ccccc2)CC1
IC50: 17.8 µM | IC90: 22.7 µM | CC50: > 40 µM

CCn1nnc(NC(=O)c2ccc(-c3ccc(Cl)cc3)o2)n1
IC50: 19.8 µM | IC90: > 100 µM

Nc1ccc2ncccc2c1
IC50: 37.9 µM | IC90: > 100 µM

NS(=O)(=O)c1ccc(CCNC(=O)c2ccc3nc4ccc(Cl)cc4c(=O)n3c2)cc1
IC50: 10.1 µM | IC90: 30.3 µM

O=C(CSc1ncnc2c1oc1ccccc12)OCc1ccccc1
IC50: 7.79 µM | IC90: 26.8 µM

O=C(Nc1cc(Cl)cc(Cl)c1)N1CCCC1
IC50: 12.2 µM | IC90: 17.6 µM | CC50: > 40 µM

CC(C)[C@H](NC(=O)c1ccccc1Cl)C(=O)Nc1nc(-c2ccccn2)cs1
IC50: 7.72 µM | IC90: > 100 µM | CC50: 9.39 µM

CC(C)(C)Nc1nc(NC(C)(C)C)nc(-n2ccnc2)n1
IC50: 11.4 µM | IC90: 13.1 µM

CCOCC(=O)Nc1ccc(OCc2ccccc2)cc1
IC50: 29.5 µM | IC90: > 100 µM

Cc1[nH]nc2c1C(c1ccc(-c3ccc(Cl)cc3)o1)C(C#N)=C(N)O2 (configuration not stated)
IC50: 0.749 µM | IC90: 91.5 µM | CC50: > 40 µM

CCOc1ccccc1/C=C/C(=O)c1ccc(Cl)cc1
IC50: 24.3 µM | IC90: 34.2 µM | CC50: > 40 µM

CCSCc1nnc(SCC(=O)Nc2cccc(SC)c2)n1C
IC50: 43.5 µM | IC90: > 100 µM

O=C(COc1ccc(Cl)cc1)Nc1ccc(Cc2ccncc2)cc1
IC50: 5.95 µM | IC90: 12.4 µM

O=C(Nc1nnc(-c2cccs2)o1)c1cccc(C(F)(F)F)c1
IC50: < 0.391 µM | IC90: 11.9 µM | CC50: 20.6 µM

O=Cc1ccc2oc3nc4n(c(=O)c3c(=O)c2c1)CCCS4
IC50: 0.441 µM | IC90: 1.24 µM

Cn1cc(C(=O)CCl)c2ccccc21
IC50: 1.6 µM | IC90: 4.01 µM | CC50: 10.9 µM

COc1ccc(Cn2c(O)c(/C=C3/C=CC=N3)c(=O)[nH]c2=O)cc1
IC50: 0.269 µM | IC90: > 100 µM | CC50: > 40 µM

O=C(Nc1ccc(N2CCN(C(=O)c3ccc(Cl)cc3)CC2)cc1)c1ccc([N+](=O)[O-])o1
IC50: < 0.195 µM | IC90: < 0.195 µM | CC50: 0.417 µM

O=C(Nc1nc2ccc(F)cc2s1)c1ccccn1
IC50: < 0.195 µM | IC90: 0.248 µM | CC50: 3.01 µM

COc1ccc2cc(-c3[nH]ncc3CN3CCCN(c4ccccc4)CC3)ccc2c1
IC50: 9.35 µM | IC90: 15.4 µM | CC50: > 40 µM

COc1ccccc1OC(=O)CCN1c2ccccc2Sc2ccccc21
IC50: 11.8 µM | IC90: 17.5 µM

Cc1ccc(NC(=O)C2CCCCC2C(=O)O)cc1Cl (configuration not stated)
IC90: > 100 µM

O=C(Nc1ccn(Cc2ccccc2F)n1)c1ccc(COc2ccc(Cl)cc2Cl)o1
IC50: 33.9 µM | IC90: > 100 µM | CC50: > 40 µM

Cc1cc(C2N=C(N)Nc3nc4ccccc4n32)c(C)n1-c1ccccc1Cl (configuration not stated)
IC50: 7.61 µM | IC90: 12.2 µM

COc1c(Cl)cc(Cl)cc1/C=C/C(=O)c1ccc(NC(=O)c2cccs2)cc1
IC50: 7.91 µM | IC90: 16.4 µM | CC50: 6.47 µM

O=C(Nc1nnc(-c2ccccc2)o1)c1nc2ccccc2s1
IC50: 6.13 µM | IC90: 13.6 µM | CC50: > 40 µM

O=C(CNCc1ccccc1)Nc1ccc(Oc2ccccc2)cc1
IC50: 13.2 µM | IC90: > 100 µM

Cc1cc(C)c(-c2csc(NC(=O)/C=C/c3cccs3)n2)c(C)c1
IC50: 4.66 µM | IC90: 8.18 µM | CC50: > 40 µM

Brc1ccc(OCc2nc(-c3ccccn3)n[nH]2)cc1
CC50: 10.6 µM

CCCCOC(=O)Nc1ccc(C(=O)OCCC)cc1
IC50: 2.34 µM | IC90: > 100 µM

CC(C)Cn1c(N2CCN(C(=O)/C=C/c3ccccc3)CC2)nc2ccccc21
IC50: 21.5 µM | IC90: 29.9 µM

CC1(c2ccccc2)CC(C)(C)N(C(=O)c2cc([N+](=O)[O-])cc([N+](=O)[O-])c2)c2ccccc21 (configuration not stated)
IC50: 13.4 µM | IC90: 54.5 µM | CC50: > 40 µM

CC(=O)Nc1cccc(C(=O)/C=C/c2ccc(Br)cc2)c1
IC50: 6.48 µM | IC90: 9.82 µM | CC50: 10.7 µM

Cc1cccc(Nc2nnc(SCC(=O)Nc3cccnc3Cl)s2)c1
IC50: 2.34 µM | IC90: 8.03 µM

CCCn1c(NC(=O)c2cccc(C)c2C)nc2ccccc21
IC50: 1 µM | IC90: 3.63 µM | CC50: 24.7 µM

O=C(C1CCN(c2nnc(-n3cccc3)s2)CC1)N1CCc2ccccc2C1
IC50: 0.701 µM | IC90: 0.937 µM

NC1=NC[C@H](Cc2ccc(O)cc2)N1CCC12CC3CC(CC(C3)C1)C2
IC50: 5.85 µM | IC90: 9.05 µM

C=C1C(=O)O[C@@H]2C[C@@H](C)[C@@H]3C=CC(=O)[C@@]3(C)[C@@H](OC(=O)CC(=O)O[C@H]3[C@@H]4C(=C)C(=O)O[C@@H]4C[C@@H](C)[C@@H]4C=CC(=O)[C@]43C)[C@H]12
IC50: 1.47 µM | IC90: 3.35 µM | CC50: 1.4 µM

C=C1C(=O)O[C@@H]2C[C@@H](C)[C@@H]3C=CC(=O)[C@@]3(C)[C@@H](OC(C)=O)[C@H]12
IC50: 2.07 µM | IC90: 3.51 µM | CC50: 2.02 µM

O=[N+]([O-])c1cc(O)c2ncccc2c1
IC50: 2.71 µM | IC90: 3.39 µM | CC50: 7.36 µM

Cn1ccnc1C(O)c1cc(C(C)(C)C)c(O)c(C(C)(C)C)c1 (configuration not stated)
IC50: 10.3 µM | IC90: 13.8 µM

Cc1nc2c(-c3ccc(Cl)cc3)c(C)[nH]n2c(=O)c1Cc1ccccc1
IC50: 1.98 µM | IC90: 9.69 µM | CC50: 4.04 µM

CCn1c(CNc2ccc(F)cc2)nnc1SCC(=O)OC1CCCCC1
IC50: 12 µM | IC90: 13.7 µM

COCCCN=C1NN=C(c2cc(C)n(-c3ccccc3F)c2C)CS1
IC50: 5.21 µM | IC90: 7.08 µM | CC50: 21.7 µM

Cc1cccc(Oc2ccc(N)cc2)c1
IC90: > 100 µM

Cc1cccc(OCCCCCn2ccnc2)c1C
IC50: 10.6 µM | IC90: 11.6 µM | CC50: > 40 µM

CC(C)(C)C(=O)Nc1ccc(-c2nc3ccccc3c(=O)o2)cc1
IC50: 9.98 µM | IC90: 20.2 µM

COc1ccc2nc(SCC(=O)Nc3ccc4c(c3)CCC4)[nH]c2c1
IC50: 15.6 µM | IC90: > 100 µM

Cc1ccc(Nc2cc(C)nn2-c2nc(C)cc(C)n2)cc1
IC50: < 0.195 µM | IC90: 56.1 µM | CC50: 13.5 µM

CCCc1cc(NCc2ccccn2)n2nc(C)c(-c3ccccc3)c2n1
IC50: 4.33 µM | IC90: 7.09 µM | CC50: > 40 µM

CCOc1ccc(-c2nnc(NC(=O)c3ccc(OCC(C)C)c(OC)c3)o2)cc1
IC50: 10.1 µM | IC90: > 100 µM | CC50: 25.3 µM

O=C(CSc1nnc(-c2cccs2)o1)OC1CCCCC1
IC50: 2.23 µM | IC90: 7.65 µM

C/C(=C\C(=O)c1ccc(C)o1)Nc1ccc2c(c1)OCO2
IC90: > 100 µM

Cc1ccc(-c2csc3nc[nH]c(=S)c23)cc1C
IC50: 20 µM | IC90: > 100 µM | CC50: 26.1 µM

COc1ccc(N2CCN(Cc3nc(N)nc(Nc4ccc(C)c(Cl)c4)n3)CC2)cc1
IC50: 0.546 µM | IC90: 1.71 µM | CC50: > 40 µM

C=CCNc1cc(C(F)(F)F)nc(-c2ccccn2)n1
IC50: 4.87 µM | IC90: 16.3 µM

Cc1cccc(N2CCN(C(=O)c3ccc4nc(N5CCCCC5)sc4c3)CC2)c1C
IC50: 7.98 µM | IC90: 11.2 µM | CC50: > 40 µM

CCCn1c(NC(=O)c2ccccc2)nc2ccccc21
IC50: 3.89 µM | IC90: > 100 µM | CC50: > 40 µM

CCOC(=O)COc1ccc2c(=O)c(-c3ccccc3OC)coc2c1
IC50: 1.06 µM | IC90: 2.45 µM

Cc1nc(S/C(=C/c2ccc(-c3ccc(Cl)cc3)o2)C(=O)O)n[nH]1
IC50: 10.6 µM | IC90: > 100 µM | CC50: > 40 µM

COC(=O)CSc1nc(N)c2c3c(sc2n1)C(c1ccccc1)SC(c1ccccc1)C3 (configuration not stated)
IC50: 14.4 µM | IC90: > 100 µM | CC50: 7.1 µM

N#CC(C(=O)C12CC3CC(CC(C3)C1)C2)c1nc2ccccc2[nH]1 (configuration not stated)
IC50: 9.8 µM | IC90: > 100 µM | CC50: > 40 µM

O=[N+]([O-])c1cc(C(F)(F)F)ccc1Oc1cccnc1[N+](=O)[O-]
IC50: 1.54 µM | IC90: 1.73 µM

CCCOC(=O)CSc1nnc(-c2cc(OC)c(OC)c(OC)c2)o1
IC50: 0.728 µM | IC90: 1.83 µM

COc1ccc(-c2c(C#N)c(SCC(=O)c3cc4ccccc4oc3=O)nc(C)c2C(=O)Nc2ccccc2)cc1
IC50: 12.2 µM | IC90: 14.2 µM | CC50: 3.41 µM

CCCCCCOc1cccc(N)c1
IC50: 16.9 µM | IC90: > 100 µM

CCOc1ccc(N/C(C)=C/C(=O)c2ccc(C)o2)cc1
IC50: 13.3 µM | IC90: > 100 µM
